Values of other authors as cited in PubChem BioAssay AID1259409 (Chemical Carcinogenesis Research Information System (CCRIS), 2018).

Tested on: rodent chemically induced tumor inhibition, incidence and multiplicity
Experiment: CCRIS tumor inhibitor studies
Conditions: Route [Inhibitor]: ORAL, Promoter: NONE USED

O=[Se]=O
tumour outcome (control, treated, inhibition, significance) (Carcinogen: N-2-FLUORENYLACETMIDE, 53-96-3, Dose [Inhibitor]: 0.1 PPM IN DIET DAILY STARTING SIMULTANEOUSLY WITH CARCINOGEN TREATMENT AT AGE 35 D AND CONTINUING FOR DURATION OF STUDY, Species: RAT, Strain/Sex: OSU-BROWN/FEMALE, Target Tissue: Type of Lesion: LIVER: HEPATOMA, Dose [Carcinogen]: 150 PPM IN DIET DAILY FOR DURATION OF STUDY): 85%, 100%, -18%, not calculated | tumour outcome (control, treated, inhibition, significance) (Carcinogen: N-2-FLUORENYLACETMIDE, 53-96-3, Dose [Inhibitor]: 0.1 PPM IN DIET DAILY STARTING SIMULTANEOUSLY WITH CARCINOGEN TREATMENT AT AGE 35 D AND CONTINUING FOR DURATION OF STUDY, Species: RAT, Strain/Sex: OSU-BROWN/FEMALE, Target Tissue: Type of Lesion: MAMMARY GLAND: ADENOCARCINOMA, Dose [Carcinogen]: 150 PPM IN DIET DAILY FOR DURATION OF STUDY): 94%, 100%, -6%, not calculated | tumour outcome (control, treated, inhibition, significance) (Carcinogen: N-2-FLUORENYLACETMIDE, 53-96-3, Dose [Inhibitor]: 0.5 PPM IN DIET DAILY STARTING SIMULTANEOUSLY WITH CARCINOGEN TREATMENT AT AGE 35 D AND CONTINUING FOR DURATION OF STUDY, Species: RAT, Strain/Sex: OSU-BROWN/FEMALE, Target Tissue: Type of Lesion: LIVER: HEPATOMA, Dose [Carcinogen]: 150 PPM IN DIET DAILY FOR DURATION OF STUDY): 85%, 80%, 6%, not calculated | tumour outcome (control, treated, inhibition, significance) (Carcinogen: N-2-FLUORENYLACETMIDE, 53-96-3, Dose [Inhibitor]: 0.5 PPM IN DIET DAILY STARTING SIMULTANEOUSLY WITH CARCINOGEN TREATMENT AT AGE 35 D AND CONTINUING FOR DURATION OF STUDY, Species: RAT, Strain/Sex: OSU-BROWN/FEMALE, Target Tissue: Type of Lesion: MAMMARY GLAND: ADENOCARCINOMA, Dose [Carcinogen]: 150 PPM IN DIET DAILY FOR DURATION OF STUDY): 94%, 85%, 10%, not calculated | tumour outcome (control, treated, inhibition, significance) (Carcinogen: N-2-FLUORENYLACETMIDE, 53-96-3, Dose [Inhibitor]: 2.5 PPM IN DIET DAILY STARTING SIMULTANEOUSLY WITH CARCINOGEN TREATMENT AT AGE 35 D AND CONTINUING FOR DURATION OF STUDY, Species: RAT, Strain/Sex: OSU-BROWN/FEMALE, Target Tissue: Type of Lesion: LIVER: HEPATOMA, Dose [Carcinogen]: 150 PPM IN DIET DAILY FOR DURATION OF STUDY): 85%, 50%, 41%, not calculated | tumour outcome (control, treated, inhibition, significance) (Carcinogen: N-2-FLUORENYLACETMIDE, 53-96-3, Dose [Inhibitor]: 2.5 PPM IN DIET DAILY STARTING SIMULTANEOUSLY WITH CARCINOGEN TREATMENT AT AGE 35 D AND CONTINUING FOR DURATION OF STUDY, Species: RAT, Strain/Sex: OSU-BROWN/FEMALE, Target Tissue: Type of Lesion: MAMMARY GLAND: ADENOCARCINOMA, Dose [Carcinogen]: 150 PPM IN DIET DAILY FOR DURATION OF STUDY): 94%, 68%, 28%, not calculated | tumour outcome (control, treated, inhibition, significance) (Carcinogen: NONE USED, Dose [Inhibitor]: 0.1 PPM IN DRINKING WATER DAILY FOR 22 MO STARTING AT AGE 2 MO AND CONTINUING FOR DURATION OF STUDY (STUDY DURATION: 22, Species: MOUSE, Strain/Sex: C3H/FEMALE, Target Tissue: Type of Lesion: MAMMARY GLAND: ADENOCARCINOMA): 42%, 25%, 40%, not calculated | tumour outcome (control, treated, inhibition, significance) (Carcinogen: NONE USED, Dose [Inhibitor]: 0.5 PPM IN DRINKING WATER DAILY FOR 22 MO STARTING AT AGE 2 MO AND CONTINUING FOR DURATION OF STUDY (STUDY DURATION: 22, Species: MOUSE, Strain/Sex: C3H/FEMALE, Target Tissue: Type of Lesion: MAMMARY GLAND: ADENOCARCINOMA): 42%, 19%, 55%, not calculated | tumour outcome (control, treated, inhibition, significance) (Carcinogen: NONE USED, Dose [Inhibitor]: 1 PPM IN DRINKING WATER DAILY FOR 22 MO STARTING AT AGE 2 MO AND CONTINUING FOR DURATION OF STUDY (STUDY DURATION: 22 MO, Species: MOUSE, Strain/Sex: C3H/FEMALE, Target Tissue: Type of Lesion: MAMMARY GLAND: ADENOCARCINOMA): 42%, 10%, 76%, not calculated | tumour outcome (control, treated, inhibition, significance) (Carcinogen: NONE USED, Dose [Inhibitor]: 2 PPM IN DRINKING WATER DAILY FOR DURATION OF STUDY (STUDY DURATION: 16 MO), Species: MOUSE, Strain/Sex: C3H/FEMALE, Target Tissue: Type of Lesion: MAMMARY GLAND: ADENOCARCINOMA): 82%, 10%, 88%, not calculated | tumour outcome (control, treated, inhibition, significance) (Carcinogen: NONE USED, Dose [Inhibitor]: 5 PPM IN DRINKING WATER DAILY STARTING AT AGE 1 MO AND CONTINUING FOR LIFE (STUDY DURATION: LIFE), Species: MOUSE, Strain/Sex: C3H/FEMALE, Target Tissue: Type of Lesion: MAMMARY GLAND: TUMOR): 82%, 36%, 56%, p<0.005 | tumour outcome (control, treated, inhibition, significance) (Carcinogen: NONE USED, Dose [Inhibitor]: 15 PPM IN DRINKING WATER DAILY STARTING AT AGE 1 MO AND CONTINUING FOR LIFE (STUDY DURATION: LIFE), Species: MOUSE, Strain/Sex: C3H/FEMALE, Target Tissue: Type of Lesion: MAMMARY GLAND: TUMOR): 82%, 33%, 60%, p<0.005
